The values that follow come from US8772492B2, “Substituted isoquinoline and isoquinolinone derivatives” (Sanofi, priority 2006, dated 2014).

The structures appear in SMILES notation.

A word on the IC50: it is the concentration that inhibits the measured activity by half.

The experiment deals with T1, Active human recombinant ROCK II (N-terminal His6-tagged recombinant human ROCK-II residues 11-552) (Homo sapiens, UniProt O75116).
T1 construct: recombinant human ROCK-II residues 11-552; His6 (N); purchased Upstate Ltd., Dundee, UK
T1 sequence (O75116 11-552): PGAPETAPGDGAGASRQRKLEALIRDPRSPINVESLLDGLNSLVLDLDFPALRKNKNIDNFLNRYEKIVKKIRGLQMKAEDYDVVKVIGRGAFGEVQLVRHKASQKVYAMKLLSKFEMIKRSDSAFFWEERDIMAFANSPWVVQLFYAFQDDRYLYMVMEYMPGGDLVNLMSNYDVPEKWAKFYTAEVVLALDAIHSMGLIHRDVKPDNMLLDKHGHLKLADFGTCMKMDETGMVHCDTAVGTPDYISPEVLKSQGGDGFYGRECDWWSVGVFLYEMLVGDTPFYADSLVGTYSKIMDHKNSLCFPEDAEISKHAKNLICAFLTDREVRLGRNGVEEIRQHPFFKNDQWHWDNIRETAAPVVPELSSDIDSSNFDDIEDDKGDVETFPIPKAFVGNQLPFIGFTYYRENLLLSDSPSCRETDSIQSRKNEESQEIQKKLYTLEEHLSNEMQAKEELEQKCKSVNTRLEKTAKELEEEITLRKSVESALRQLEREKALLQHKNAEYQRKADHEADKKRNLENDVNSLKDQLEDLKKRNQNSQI
The experiment in a line: Determination of Rho-kinase activity (Rho-kinase inhibition, Caliper peptide phosphorylation assay). It counts as biochemical. Conditions: Fluorescein-AKRRRLSSLRA-COOH peptide substrate and ATP, 60 min incubation at 32° C., tested as the form (salt or free base) obtained in the examples, read-out: pIC50 (negative decadal logarithm of the IC50), Rho-kinase inhibition (converted). As for the experimental part:
Determination of Rho-Kinase Activity
To measure Rho-kinase inhibition, IC50 values were determined according to the following protocol:
Active human recombinant ROCK II (N-terminal His6-tagged recombinant human ROCK-II residues 11-552) was purchased from Upstate Ltd., Dundee, UK. The peptide substrate, Fluorescein-AKRRRLSSLRA-COOH, was obtained from JPT Peptide Technologies, Berlin, Germany. Adenosine-5′-triphosphate (ATP), bovine serum albumine (BSA), dimethylsulphoxide (DMSO), 4-(2-Hydroxyethyl)piperazine-1-ethanesulfonic acid (Hepes), Brij-35 and dithiothreitol (DTT) were purchased from Sigma-Aldrich, Munich, Germany. Tris(hydroxymethyl)-aminomethane (Tris), magnesium chloride, NaOH, 1M HCl and EDTA were obtained from Merck Biosciences, Darmstadt, Germany. “Complete” protease inhibitor was from Roche Diagnostics, Mannheim, Germany.
Test compounds were diluted to the appropriate concentrations in buffer 1 (25 mM Tris-HCl, pH 7.4, 5 mM MgCl2, 2 mM DTT, 0.02% (w/v) BSA and 3% DMSO). The ROCK II enzyme was diluted to a concentration of 100 ng/ml in buffer 2 (25 mM Tris-HCl, pH 7.4, 5 mM MgCl2, 2 mM DTT and 0.02% (w/v) BSA). The peptide substrate and ATP were diluted to concentrations of 3 μM and 120 μM, respectively, in the buffer 2. Two μl of the compound solution were mixed with 2 μl of the diluted enzyme in a 384-well small volume microtiter plate (Greiner, Bio-One, Frickenhausen, Germany), and the kinase reaction was initiated by addition of 2 μl of the solution containing peptide substrate and ATP. After 60 min incubation at 32° C., the reaction was stopped by addition of 20 μl of a solution containing 100 mM Hepes-NaOH, pH 7.4, 0.015% (v/v) Brij-35, 45 mM EDTA and 0.227% chip coating reagent 1 (Caliper Lifescience Inc, Hopkinton, Mass.). Phosphorylation of the substrate peptide was then detected on a Caliper 3000 instrument essentially as described by Pommereau et al (J. Biomol. Screening 9(5), 409-416, 2004). Separation conditions were as follows: Pressure −1.3 psi, upstream voltage −1562 V, downstream voltage −500 V, sample sip time 200 ms. Positive controls (buffer 1 instead of compound) and negative controls (buffer 1 instead of compound and buffer 2 instead of ROCK II) were run in parallel on each plate.
The following products/compounds were tested in said assay by using the respective form (salt or free base) obtained as in the examples described above and the following activities were measured.
For `O=C(NCCc1ccccc1)[C@@H]1C[C@@H](Oc2ccc3cnccc3c2)CCN1` [Compound 21, (2S,4S)-4-(Isoquinolin-6-yloxy)-piperidine-2-carboxylic acid phenethyl-amide], the IC50 is 1000 to 10000 nM. The same measure for `O=C(NCc1ccccc1Cl)[C@@H]1C[C@@H](Oc2ccc3cnccc3c2)CCN1` [Compound 22, (2S,4S)-4-(Isoquinolin-6-yloxy)-piperidine-2-carboxylic acid 2-chloro-benzylamide]: no more than 1000 nM; for `O=C(NCCO)[C@@H]1C[C@@H](Oc2ccc3cnccc3c2)CN1` [Compound 27, (2S,4R)-4-(Isoquinolin-6-yloxy)-pyrrolidine-2-carboxylic acid (2-hydroxy-ethyl)-amide]: 1000 to 10000 nM.

For `C#CCNC(=O)[C@@H]1C[C@@H](Oc2ccc3cnccc3c2)CN1` [Compound 31, (2S,4R)-4-(Isoquinolin-6-yloxy)-pyrrolidine-2-carboxylic acid prop-2-ynylamide], the IC50 was no more than 1000 nM.

Turning to `O=C(NCc1ccco1)[C@@H]1C[C@H](Nc2ccc3cnccc3c2)CN1` [Compound 41, (2S,4S)-4-(Isoquinolin-6-ylamino)-pyrrolidine-2-carboxylic acid (furan-2-ylmethyl)-amide], the IC50 is 1000 to 10000 nM. Take `O=C(NCCc1ccccc1)[C@@H]1C[C@H](Nc2ccc3cnccc3c2)CN1` [Compound 45, (2S,4S)-4-(Isoquinolin-6-ylamino)-pyrrolidine-2-carboxylic acid phenethyl-amide]: the IC50 was no more than 1000 nM. Consider `COc1cccc(CNC(=O)[C@H]2CNC[C@@H]2Nc2ccc3cnccc3c2)c1` [Compound 48, (3S,4R)-4-(Isoquinolin-6-ylamino)-pyrrolidine-3-carboxylic acid 3-methoxy-benzylamide], for which the IC50 was no more than 1000 nM.

As to `COCCNC(=O)[C@H]1CNC[C@@H]1Nc1ccc2cnccc2c1` [Compound 49, (3S,4R)-4-(Isoquinolin-6-ylamino)-pyrrolidine-3-carboxylic acid (2-methoxy-ethyl)-amide], the IC50 is 1000 to 10000 nM. Then `Cc1ccccc1NC(=O)[C@H]1CNC[C@@H]1Nc1ccc2cnccc2c1` [Compound 50, (3S,4R)-4-(Isoquinolin-6-ylamino)-pyrrolidine-3-carboxylic acid o-tolylamide], with no more than 1000 nM; and `O=c1[nH]ccc2cc(OC3(c4ccccc4)CCN(Cc4ccccc4)CC3)c(Cl)cc12` [Compound 69, 6-(1-Benzyl-4-phenyl-piperidin-4-yloxy)-7-chloro-2H-isoquinolin-1-one], with 1000 to 10000 nM. As to `CN1[C@@H]2CC[C@H]1C[C@@H](Oc1cc3cc[nH]c(=O)c3cc1Cl)C2` [Compound 75, 7-Chloro-6-(8-methyl-8-aza-bicyclo[3.2.1]oct-3-yloxy)-2H-isoquinolin-1-one], the IC50 is no more than 1000 nM. The same measure for `Cc1cc2c(=O)[nH]ccc2cc1O[C@H]1C[C@H]2CC[C@@H](C1)N2C` [Compound 76, 7-Methyl-6-(8-methyl-8-aza-bicyclo[3.2.1]oct-3-yloxy)-2H-isoquinolin-1-one]: no more than 1000 nM.
